Assay results published in publication PMC4860631, “Pharmacokinetics and tolerability of NSC23925b, a novel P-glycoprotein inhibitor: preclinical study in mice and rats” (Scientific Reports, 2016).
Where two headings read alike, the source gives them in different places.

Legend:
CYP2C19 = biological target: T1, CYP2C19 (Homo sapiens, UniProt P33261); experiment: HLM-LC-MS CYP450 inhibition assay, CYP2C19; format: in vitro ADME
T1 construct: from tissue; host or cells: human liver microsomes
Procedure: Compounds were tested in triplicate.

in vivo = settings: mouse, in vivo; for AUC(0-inf): AUC0-inf; for AUC(0-t): AUC0-t; for k el: Kel; for half-life: t1/2
Procedure: After dosing, blood samples were collected at different time points for each group. […] Three animals were used for each time point. Approximately 800 μL of blood was collected via orbital vein (a source of collecting sufficient volume of venous blood) from each anesthetized mouse by isoflurane, and 200 μL of blood was collected from the cannula implanted in the jugular vein. The catheter was implanted when the blood sample was collected at the first time point. Next, the blood was transferred to a prepared tube containing sodium heparin anticoagulant and mixed briefly by gentle inversion three to four times. The target and actual time of blood sampling were recorded relative to the time of dosing. Samples were placed on wet ice immediately after collection. Within 1 hour after collection, plasma was separated by centrifugation at 4,000 rpm for 10 minutes at 4 °C. The plasma was protected from light and stored at −80 °C until analyzed by liquid chromatography-mass spectrometry/mass spectrometry (LC-MS/MS) for quantification.
Using the data from the standards, calibration curves were generated for each analytical batch. Aliquots of 10.0 μL of samples, calibraton curve samples, and QC samples were supplemented with 100 μL of precipitant (a mixture of acetone and acetonitrile (30:70)). After vortexing for 3 min and centrifuging at 12,000 rpm for 3 min, 75.00 μL of the supernatant was transferred into a 96-well microplate with an equal volume of water. The 10 μL mixture solution was injected for LC-MS/MS analysis.
Data collection was performed using Analyst version 1.4 from Applied Biosystems. […] The data were also analyzed using Prism 5.0 software. Statistical significance was determined using independent two-tailed Student t-tests and one-way ANOVA for independent data. Differences of P < 0.05 were regarded as significant for all statistical analyses.

[1] = male, Sprague-Dawley, rat, in vivo
CYP1A2 = biological target: T2, CYP1A2 (Homo sapiens, UniProt P05177); experiment: HLM-LC-MS CYP450 inhibition assay, CYP1A2; format: in vitro ADME
T2 sequence (P05177 1-516): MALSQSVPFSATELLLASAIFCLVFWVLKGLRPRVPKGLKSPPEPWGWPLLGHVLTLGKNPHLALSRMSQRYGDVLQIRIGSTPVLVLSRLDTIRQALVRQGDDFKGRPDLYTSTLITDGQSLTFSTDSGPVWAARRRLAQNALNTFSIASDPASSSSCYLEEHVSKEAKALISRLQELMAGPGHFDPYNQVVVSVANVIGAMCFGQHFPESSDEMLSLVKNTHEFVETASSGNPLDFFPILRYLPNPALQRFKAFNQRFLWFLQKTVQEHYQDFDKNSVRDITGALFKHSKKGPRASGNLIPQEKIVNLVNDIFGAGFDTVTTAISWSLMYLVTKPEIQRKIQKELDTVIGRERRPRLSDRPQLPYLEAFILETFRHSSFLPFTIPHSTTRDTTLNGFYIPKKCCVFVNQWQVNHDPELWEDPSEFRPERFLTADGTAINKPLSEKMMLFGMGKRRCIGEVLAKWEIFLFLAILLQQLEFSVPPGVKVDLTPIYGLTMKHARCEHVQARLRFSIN

T1 sequence (P33261 whole entry): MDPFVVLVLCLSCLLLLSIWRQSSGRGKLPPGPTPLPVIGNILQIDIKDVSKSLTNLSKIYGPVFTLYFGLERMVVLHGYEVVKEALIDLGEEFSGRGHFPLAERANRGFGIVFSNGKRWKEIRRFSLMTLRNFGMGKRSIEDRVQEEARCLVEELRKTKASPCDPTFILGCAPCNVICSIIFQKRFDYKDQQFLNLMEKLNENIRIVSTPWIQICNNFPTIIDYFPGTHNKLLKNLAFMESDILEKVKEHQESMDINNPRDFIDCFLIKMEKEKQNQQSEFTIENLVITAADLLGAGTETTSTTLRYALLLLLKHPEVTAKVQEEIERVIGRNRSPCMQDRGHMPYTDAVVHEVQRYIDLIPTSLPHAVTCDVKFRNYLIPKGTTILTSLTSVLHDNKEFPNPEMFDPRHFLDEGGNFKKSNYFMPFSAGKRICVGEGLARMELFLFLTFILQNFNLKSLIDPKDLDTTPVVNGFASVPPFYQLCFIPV

COc1ccc(-c2cc(C(O)C3CCCCN3)c3ccccc3n2)cc1 (stereo not drawn) [NSC23925b, (2-(4-methoxyphenyl)-4-quinolinyl)(2-piperidinyl)methanol]
CYP inhibitor class (CYP2C19): weak (IC50 values of >10 μM) | IC50 (CYP2C19; substrate S-mephenytoin 35 μM, 4-hydroxylation, read-out: Compound IC50): > 10 µM | volumes of distribution at a steady state (in vivo; male, BALB/c (mice), Sprague-Dawley (rats)): > 9 L/kg | time of highest concentrations in plasma after I.P. injection (in vivo; male, BALB/c (mice), Sprague-Dawley (rats), ip, 5 mg/kg): 1 to 2 h | time of highest concentrations in plasma after I.V. injection (in vivo; male, BALB/c (mice), Sprague-Dawley (rats), iv, 2.5 mg/kg): 5 min | time point of peak plasma NSC23925b concentrations for both I.V. and I.P. (in vivo; male, BALB/c): 15 min | AUMC0-inf (in vivo; male, BALB/c, ip, 5 mg/kg): 50744 ± 36083 h·h·ng·mL^−1 | AUMC0-t (in vivo; male, BALB/c, ip, 5 mg/kg): 25329 ± 4810 h·h·ng·mL^−1 | Cmax (in vivo; male, BALB/c, ip, 5 mg/kg): 298 ± 56.1 ng/mL | F (in vivo; male, BALB/c, ip, 5 mg/kg): 117.1 ± 24.06% | AUC(0-inf) (in vivo; male, BALB/c, ip, 5 mg/kg): 3980 ± 819 ng·h/mL | AUC(0-t) (in vivo; male, BALB/c, ip, 5 mg/kg): 3360 ± 197 ng·h/mL | k el (in vivo; male, BALB/c, ip, 5 mg/kg): 2.56e-05 s⁻¹ | half-life (in vivo; male, BALB/c, ip, 5 mg/kg): 8.69 ± 4.18 h | Tmax (in vivo; male, BALB/c, ip, 5 mg/kg, tmax): ~1.5 h | AUMC0-inf (in vivo; male, BALB/c, iv, 2.5 mg/kg): 11945 ± 2141 h·h·ng·mL^−1 | AUMC0-t (in vivo; male, BALB/c, iv, 2.5 mg/kg): 9893 ± 1299 h·h·ng·mL^−1 | MRTIV (in vivo; male, BALB/c, iv, 2.5 mg/kg): 6.99 ± 0.836 h | AUC(0-inf) (in vivo; male, BALB/c, iv, 2.5 mg/kg): 1700 ± 130 ng·h/mL | AUC(0-t) (in vivo; male, BALB/c, iv, 2.5 mg/kg): 1640 ± 114 ng·h/mL | clearance (in vivo; male, BALB/c, iv, 2.5 mg/kg, CL): 24.6 ± 1.96 mL/min/kg | k el (in vivo; male, BALB/c, iv, 2.5 mg/kg): 3.89e-05 s⁻¹ | Vd (in vivo; male, BALB/c, iv, 2.5 mg/kg, VdSS): 10.3 ± 0.808 L/kg | half-life (in vivo; male, BALB/c, iv, 2.5 mg/kg): 5.01 ± 0.661 h | treatment-related clinical signs during the pharmacokinetic study (in vivo): no treatment-related clinical signs were observed | AUMC0-inf ([1]; ip, 5 mg/kg): 38450 ± 36415 h·h·ng·mL^−1 | AUMC0-t ([1]; ip, 5 mg/kg): 13328 ± 5611 h·h·ng·mL^−1 | F ([1]; ip, 5 mg/kg): 110.6 ± 47.4% | AUMC0-inf ([1]; iv, 2.5 mg/kg): 10502 ± 642 h·h·ng·mL^−1 | AUMC0-t ([1]; iv, 2.5 mg/kg): 5504 ± 317 h·h·ng·mL^−1 | MRTIV ([1]; iv, 2.5 mg/kg): 11.7 ± 0.512 h | CYP inhibitor class (CYP1A2): weak (IC50 values of >10 μM) | IC50 (CYP1A2; substrate phenacetin 30 μM, O-deethylation, read-out: Compound IC50): > 10 µM
